Assay [1] concerns the target T1, apo‐YggS (Escherichia coli, UniProt P67080).
T1 construct: made in house; host or cells: E. coli HMS174(DE3)
The experiment in a line: biochemical. The format is binding. The procedure: The thermal stability of holo‐ and apo‐YggS forms was analyzed by differential scanning fluorimetry (DSF).
Differential scanning fluorimetry (DSF) assays were performed on a Real Time PCR Instrument (CFX Connect Real Time PCR system, Bio‐Rad, Hercules, CA). In a typical experiment, 2 μM WT and variant apo‐YggS forms in 50 mM NaHEPES, pH 7.5, 50 mM NaCl, and Sypro Orange (5x, Thermo Scientific) were mixed with various ligands (total volume of 25 μl) in a 96‐well PCR plate. […] All samples were run in triplicate. Denaturation profiles were analyzed as described in Nardella et al.[40]

In assay [2] the target is T1, apo‐YggS. Put plainly: biochemical. It counts as binding. The note with it: for Kd: dissociation constant (K D), ligand binding to WT apo-YggS, fluorescence change, 50 mM NaHEPES pH 7.6. The procedure:
(§1) Equilibrium binding analyses were carried out by measuring the decrease of protein intrinsic fluorescence observed upon the addition of increasing PLP concentrations to a fixed concentration of apo‐YggS (Figure 1b).
Dissociation constants were calculated from saturation curves obtained measuring the protein fluorescence emission intensity as a function of increasing PLP concentration. […] Fluorescence emission spectra were recorded from 310 to 450 nm upon excitation at 280 nm. Excitation and emission slits were set at 3 and 5 nm, respectively.

Assay [3] concerns the target T1, apo‐YggS. The experiment in a line: Kinetics of PLP binding to apo-YggS, absorbance of protonated Schiff base. The note with it: manual mixing time. The procedure: as §1
We set up a novel in vitro discontinuous assay in which PLP transfer from holo‐YggS to the apo‐form of eSHMT could be followed (see Section 4 for details). In this assay, the increase in SHMT activity is measured as PLP dissociates from holo‐YggS and binds to apo‐SHMT, forming the catalytically active holo‐SHMT. […] The binding kinetics of free PLP to either apo‐YggS or apo‐SHMT was measured by manually mixing 20 μM free PLP with 20 μM of protein, observing the formation of the internal aldimine at 420 nm.

In a further assay the target is eSHMT (Escherichia coli, UniProt P0A825). Put plainly: PLP binding to eSHMT. Conditions: read-out: K D for PLP.
For assay [4], the target named is T2, E. coli serine hydroxymethyltransferase, apo-form (E. coli, UniProt P0A825 1-417).
T2 construct: serine hydroxymethyltransferase of E. coli, encoded by the glyA gene; without PLP (apo-form); also called apo-SHMT; apoSHMT; source: apo-form prepared with L-cysteine as for apo-YggS
T2 sequence (looked up): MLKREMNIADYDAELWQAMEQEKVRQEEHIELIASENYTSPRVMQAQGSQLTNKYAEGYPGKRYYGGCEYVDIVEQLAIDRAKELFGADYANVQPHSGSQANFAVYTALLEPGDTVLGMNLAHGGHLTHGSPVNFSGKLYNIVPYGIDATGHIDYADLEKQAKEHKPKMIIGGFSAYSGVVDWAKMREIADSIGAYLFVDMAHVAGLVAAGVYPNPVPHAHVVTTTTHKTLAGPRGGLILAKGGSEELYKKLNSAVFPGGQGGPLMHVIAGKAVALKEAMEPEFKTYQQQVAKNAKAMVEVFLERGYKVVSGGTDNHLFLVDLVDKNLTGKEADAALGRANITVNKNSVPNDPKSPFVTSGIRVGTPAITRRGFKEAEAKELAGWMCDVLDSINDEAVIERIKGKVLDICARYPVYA
Put plainly: SPR; SensiQ Pioneer, COOH5 chip; apo-SHMT immobilised via amine coupling (100 RU); holo-YggS injected at 0.24-180 μM in PBS with 0.005% surfactant P20, 30 μl/min; done twice; Scatchard analysis. Conditions: both partners purified.

Where “and” joins values, the source holds several entries; their conditions need not be identical. Equal entries are not always repeated. Where two headings read alike, the source gives them in different places.

As for `Cc1ncc(CO)c(C=O)c1O` [PL, pyridoxal], the “binding to apo-YggS by DSF” value at apo‐YggS [1] (B6 vitamers and analogs) is “only PL and PNP bind”. The Kd at apo‐YggS [2] was found to be 57000 ± 20000 nM.

As to `Cc1ncc(COP(=O)(O)O)c(C=O)c1O` [PLP, pyridoxal 5′‐phosphate], the Kd on apo‐YggS [1] was about 50000 nM; on eSHMT it was about 5 nM; on apo‐YggS [2], 1.3 nM and ~1 nM. At apo‐YggS [3], the “time to reach PLP binding equilibrium” value is at most 3 s. For the same molecule, the “stoichiometry ratio of PLP binding” value at apo‐YggS [2] (titration with 1 μM apo-YggS) is recorded as “one”.

B1: Escherichia coli pyridoxal 5'-phosphate homeostasis protein (YggS), wild type, holo-form (natural protein, E. coli, UniProt P67080 1-234, looked up)
chain: MNDIAHNLAQVRDKISAAATRCGRSPEEITLLAVSKTKPASAIAEAIDAGQRQFGENYVQEGVDKIRHFQELGVTGLEWHFIGPLQSNKSRLVAEHFDWCHTIDRLRIATRLNDQRPAELPPLNVLIQINISDENSKSGIQLAELDELAAAVAELPRLRLRGLMAIPAPESEYVRQFEVARQMAVAFAGLKTRYPHIDTLSLGMSDDMEAAIAAGSTMVRIGTAIFGARDYSKK
modifications: PLP covalently bound to Lys36 through a Schiff base linkage
notes: YggS (PLP homeostasis protein, PLPHP) of E. coli; K233 and K234 are the last two residues; Two wild-type constructs were made in pET28b(+): His-tag at the C-terminal end (NcoI/XhoI, pET28yggS) and His-tag at the N-terminal end (NdeI/EcoRI); Samples from the standard purification held about 70-80% PLP per monomer; also called holo-YggS; YggS-PLP; source: E. coli HMS174(DE3), purified (ammonium …)
In the case of B1, the Kd in assay [4] stood at 4800 ± 800 nM.
